Results: article PMC9962735, “Synthesis and Cytotoxic Activity of the Derivatives of N-(Purin-6-yl)aminopolymethylene Carboxylic Acids and Related Compounds” (Molecules, 2023)

Tests used:
[1] = test system: COLO201 human colorectal adenocarcinoma; experiment: MTT cytotoxicity assay, COLO201; format: cell-based; settings: Homo sapiens, COLO 201; for viability at 100 µM: COLO201, 1 × 10^–4 M, mean ± SD (n = 3), read-out: Cell viability; for CC50: COLO201, 72 h incubation, MTT, n = 3
From the text: (§1) The cytotoxicity of the test compounds was studied using the MTT assay against a number of cell lines: CT-26 murine colon carcinoma, 4T1 murine mammary carcinoma, MDA-MB-231 human breast adenocarcinoma, COLO201 human colorectal adenocarcinoma, HepG2 human hepatocellular carcinoma, A549 human non-small-cell lung carcinoma, SK-BR-3 human breast adenocarcinoma, SNU-1 human gastric carcinoma, Jurkat human acute T-lymphoblastic leukemia, and WI-38 human lung fibroblasts (normal cells). Doxorubicin (Dox) was used as a reference drug. Cells were incubated with test compounds for 72 h.
(§2) Cells were seeded in flat-bottomed 96-well plates at 10,000 cells per well (for A549, SNU-1, WI-38, CT-26, MDA-MB-231, 4T1, and HepG2 cells) or 20,000 cells per well (for SK-BR-3, Jurkat, and COLO201 cells) and cultivated in complete culture mediums (for composition of each medium, see the Supplementary Materials, Table S1) in a CO2 incubator at 37 °C. At the first stage of this study, the test compounds dissolved in DMSO were added to the wells with cells at final concentrations from 1 × 10^–4 to 1 × 10^–10 mol/L (A549, SK-BR-3, SNU-1, Jurkat, and WI-38) or 1 × 10^–3 to 1 × 10^–8 mol/L (CT-26, MDA-MB-231, 4T1, COLO201, and HepG2); DMSO concentration in the wells was finally 1%. A complete cultural medium and DMSO were added to the control wells at the same concentration as in the experimental wells; 0.1% Triton X-100 solution (10 µL) was added to the corresponding wells as a non-specific positive control. After adding the test compounds, the cells were incubated for 72 h in an atmosphere containing 5% CO2. After that, the nutrient medium was removed from each well (in the case of SK-BR-3, Jurkat, and COLO201, plates were pre-centrifuged at 1500 rpm for 6 min). A solution of the commercial anticancer agent Doxorubicin (Dox, Sigma-Aldrich, St. Louis, MO, USA) in DMSO was used as a reference drug. Then, 150 µL of a complete medium with the MTT reagent (PanEco, Moscow, Russia) at a concentration of 0.5 mg/mL was added and incubated for 2 h. Formazan crystals were dissolved in DMSO (200 µL) and the absorbance in the wells was measured at 540 nm and a reference wavelength of 650 nm (Sunrise, Tecan, Groding, Austria). Experiments were performed in three parallel runs. Cell viability after incubation in the presence of test compounds was calculated in relation to cell viability in the control wells according to the Formula (1):Cell viability (%) = (Aexp/Ac) × 100,(1) where Aexp is the optical density of solutions in the wells containing test compounds; Ac is the optical density of solutions in control wells without test compounds. For detailed information on cell viability of various cell lines, see the Supplementary Materials, Figures S21–S26.
(§3) At the second stage of this study, in order to more accurately calculate the CC50 (the half maximal inhibitory concentration), the cytotoxic effect of test compounds was evaluated at concentrations close to CC50 found at the first stage. The study of the cytotoxic activity of each substance towards the cells of each line was carried out in triplicate; the mean value was used to calculate CC50. The CC50 values were determined by non-linear regression analysis using Graph-Pad Prism7.

[2] = MTT cytotoxicity assay, COLO201; format: cell-based, human; settings: human; CC50 of WI-38 divided by CC50 of COLO201; read-out: SCI (selective cytotoxicity index)
From the text: as §1, §2, §3

[3] = MTT cytotoxicity assay, HepG2; format: cell-based, human; settings: human; CC50 of WI-38 divided by CC50 of HepG2; read-out: SCI (selective cytotoxicity index)
From the text: as §1, §2, §3

[4] = test system: HepG2 human hepatocellular carcinoma; experiment: MTT cytotoxicity assay, HepG2; format: cell-based; settings: Homo sapiens; for viability at 100 µM: HepG2, 1 × 10^–4 M, mean ± SD (n = 3), read-out: Cell viability; for CC50: HepG2, 72 h incubation, MTT, n = 3
From the text: as §1, §2, §3

[5] = test system: herpes simplex virus type 1 (HSV-1), including acyclovir-resistant HSV-1 strain; parameters: method as in doi:10.1002/ejoc.201900727, doi:10.1515/pac-2019-1214, doi:10.1007/s10593-021-02929-z; settings: HSV-1 including acyclovir-resistant strain; cited from earlier work
Vero E6 cells = test system: Vero E6 cells; parameters: method as in doi:10.1007/s10593-021-02929-z; settings: cited from earlier work
MDA-MB-231 cells = experiment: Cell cycle analysis by flow cytometry (propidium iodide), MDA-MB-231; format: cell-based, human; settings: 24 h; for Cell proliferation index (%) / Number of cells (%) in cell cycle phase G0/G1 / Number of cells (%) in cell cycle phase G2M / Number of cells (%) in cell cycle phase S: M ± SD (n = 3)
Procedure: To study the potential cytostatic effect of compound 1d, we chose the method of cell cycle analysis using flow cytometry by DNA staining with propidium iodide.
To analyze possible effects on the cell cycle, we tested three concentrations of compound 1d, which were close to CC50 calculated on the basis of viability assessment data (MTT assay).
Cell cycle analysis was performed by flow cytometry by staining DNA with propidium iodide (PI). For this, cells were seeded into 6-well plates: 2 × 10^5 COLO201 cells per well and 1.2 × 10^5 MDA-MB-231 cells per well. […] The final concentration of DMSO in the culture medium was 0.1%; an equivalent volume was added to the control cells. The plates were incubated for 24 h in a CO2 incubator. Then, cells were detached from the plastic surface using TrypLE, washed with PBS, and fixed with 70% ethanol. Next, the cells were incubated for 1 h in the dark at 4 °C, then sedimented by centrifugation at 184× g for 10 min, and washed twice with PBS. PBS (0.3 mL) containing 0.1% Triton X-100, 1 µg/mL PI, and 0.2 mg/mL RNAse A was added to the pellet, incubated for 30 min at room temperature in the dark, and analyzed on a CytoFlex flow cytometer (Beckman Coulter, Brea, CA, USA).
The cell population in the test sample was found and gated on forward versus side scatter (FSC-A vs. SSC-A). Next, doublets were discriminated and removed via PI signal height versus PI signal area (PI-H vs. PI-A). For cell cycle phases analysis, PI-A was plotted against number of events (number of cells) (PI-A vs. Count).
The flow cytometry data were processed using the Kaluza Analysis 2.1 software (Beckman Coulter, Brea, CA, USA). Percentages of cell populations distributed in the various phases of the cell cycle (sub-G1, G0/G1, S, and G2M) were calculated. The result was considered significant if the coefficient of variation (CV) was less than 6.

CC1COc2c(ccc(F)c2F)N1C(=O)CCCCCCCNc1ncnc2[nH]cnc12 (stereo not drawn) [Compound 1c]
viability at 100 µM [1]: 2 ± 1% | CC50 [1]: 0.68 µM | selectivity ratio at 72 h [2]: 73 | selectivity ratio at 72 h [3]: 5.9 | viability at 100 µM [4]: 2 ± 1% | CC50 [4]: 8.5 µM | antiviral activity in vitro against HSV-1 [5]: high antiviral activity

CC1COc2c(ccc(F)c2F)N1C(=O)CCCCCCCCCCNc1ncnc2[nH]cnc12 (stereo not drawn) [Compound 1d]
viability at 100 µM [1]: 1 ± 1% | CC50 [1]: 0.68 µM | selectivity ratio at 72 h [2]: 31 | selectivity ratio at 72 h [3]: 2.5 | viability at 100 µM [4]: 2 ± 1% | CC50 [4]: 8.5 µM | concentration which caused the death of 50% Vero E6 cells (Vero E6 cells): less than 30 µM | Cell proliferation index (%) (MDA-MB-231 cells; MDA-MB-231, 10×10–6 M): 39.08% | Number of cells (%) in cell cycle phase G0/G1 (MDA-MB-231 cells; MDA-MB-231, 10×10–6 M): 60.92% | Number of cells (%) in cell cycle phase G2M (MDA-MB-231 cells; MDA-MB-231, 10×10–6 M): 13.74% | Number of cells (%) in cell cycle phase S (MDA-MB-231 cells; MDA-MB-231, 10×10–6 M): 25.33% | Cell proliferation index (%) (MDA-MB-231 cells; MDA-MB-231, 20×10–6 M): 37.57% | Number of cells (%) in cell cycle phase G0/G1 (MDA-MB-231 cells; MDA-MB-231, 20×10–6 M): 62.13% | Number of cells (%) in cell cycle phase G2M (MDA-MB-231 cells; MDA-MB-231, 20×10–6 M): 17.05% | Number of cells (%) in cell cycle phase S (MDA-MB-231 cells; MDA-MB-231, 20×10–6 M): 20.52% | Cell proliferation index (%) (MDA-MB-231 cells; MDA-MB-231, 30×10–6 M): 40.63% | Number of cells (%) in cell cycle phase G0/G1 (MDA-MB-231 cells; MDA-MB-231, 30×10–6 M): 59.37% | Number of cells (%) in cell cycle phase G2M (MDA-MB-231 cells; MDA-MB-231, 30×10–6 M): 27.49% | Number of cells (%) in cell cycle phase S (MDA-MB-231 cells; MDA-MB-231, 30×10–6 M): 13.13% | cell cycle arrest phase (MDA-MB-231 cells; MDA-MB-231, entire range of concentrations studied): arrest of the cell cycle in the G0/G1 phase
